Laboratory results: US6872706B2, “Glucopyranosyloxybenzylbenzene derivatives and medicinal compositions containing the same” (Kissei Pharmaceutical Co., Ltd., priority 2000, dated 2005)
pIC50: −log10 of the molar value.

Columns and labels:
[1] = Assay for the facilitatory effect on urinary glucose excretion; format: in vivo; details: non-fasted male SD rats, oral, urine collected 24 hours
Method: Assay for the Facilitatory Effect on Urinary Glucose Excretion
As experimental animal, non-fasted SD rats (SLC. Inc., male, 8 weeks of age, 270-320 g) were used. A test compound was suspended in 0.5% sodium carboxymethylcellulose solution and 0.3, 1 and 3 mg/mL suspension were prepared. Adler the body weights of rats were measured, the test suspension was orally administered at the dose of 10 mL/kg (3, 10 and 30 mg/kg). For the control, just only 0.5% sodium carboxymethylcellulose solution was orally administered at the dose of 10 mL/kg. The oral administration was performed with gastric tube for rat and 2.5 mL syringe. The head count in one group was 5 or 6. Collection of urine was performed in metabolic cage after the oral administration was finished. The sampling time for collection of urine was 24 hours after the oral administration. After collection of urine was finished, the urine volume was recorded and the urinary glucose concentration was measured. The glucose concentration was measured with a kit for laboratory test: Glucose B-Test WAKO (Wako Pure Chemical Industries, Ltd.). The amount of urinary glucose excretion in 24 hours per 200 g of body weight was calculated from urine volume, urinary glucose concentration and body weight.

[2] = Acute toxicity test; format: in vivo; details: male ICR mice, oral 600 mg/kg, until 24 hours after the administration, 5 animals in each group
Method: Four weeks old male ICR mice (CLEA JAPAN, INC. 22-28 g, 5 animals in each group) were fasted for 4 hours, and 60 mg/mL of a suspension of a test compound in 0.5% sodium carboxymethylcellulose solution was orally administered at the dose of 10 mL/kg(600 mg/kg).

[3] = molecular target: T1, human SGLT2 (Homo sapiens, UniProt P31639, I433V); assay: Assay for inhibitory effect on human SGLT2 activity (uptake of methyl-α-D-glucopyranoside in COS-7 cells expressing transiently human SGLT2); format: cell-based; details: inhibition of methyl-α-D-(U-14C)glucopyranoside uptake, COS-7 cells expressing transiently human SGLT2, 37° C., 2 hours
T1 construct: expressed in transfected cells; host or cells: COS-7 cells (RIKEN CELL BANK RCB0539), transient, electroporation
T1 sequence (P31639 1-672 I433V): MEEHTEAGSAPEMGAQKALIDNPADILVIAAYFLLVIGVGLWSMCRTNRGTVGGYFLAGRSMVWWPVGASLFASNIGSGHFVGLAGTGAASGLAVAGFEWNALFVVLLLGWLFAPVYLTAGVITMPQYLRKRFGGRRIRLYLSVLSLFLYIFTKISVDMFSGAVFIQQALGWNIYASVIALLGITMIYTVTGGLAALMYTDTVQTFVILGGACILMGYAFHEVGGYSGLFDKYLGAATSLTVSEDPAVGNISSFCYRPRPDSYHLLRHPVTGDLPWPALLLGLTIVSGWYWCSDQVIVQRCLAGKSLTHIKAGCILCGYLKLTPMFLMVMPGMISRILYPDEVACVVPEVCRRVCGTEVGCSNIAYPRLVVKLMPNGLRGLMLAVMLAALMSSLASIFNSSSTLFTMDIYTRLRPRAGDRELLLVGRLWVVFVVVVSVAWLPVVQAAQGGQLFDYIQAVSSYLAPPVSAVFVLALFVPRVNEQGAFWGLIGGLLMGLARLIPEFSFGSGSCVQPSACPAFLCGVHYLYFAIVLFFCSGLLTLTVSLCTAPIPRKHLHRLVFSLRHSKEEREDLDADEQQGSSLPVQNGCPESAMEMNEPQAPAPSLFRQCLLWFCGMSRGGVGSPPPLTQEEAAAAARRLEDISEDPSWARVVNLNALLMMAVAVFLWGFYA
Method: Assay for Inhibitory Effect on Human SGLT2 Activity
1) Construction of the Plasmid Vector Expressing Human SGLT2
Preparation of the cDNA library for PCR amplification was performed by reverse transcription of a total RNA deprived from human kidney (Ori gene) with oligo dT as the primer, using […] Preamplification System (Gibco-BRL: LIFE TECHNOLOGIES). […] The amplified DNA fragment was ligated into pCR-Blunt (Invitrogen), a vector for cloning, according to standard method of the kit. The competent cell, Escherichia coli HB101 (Toyobo), was transformed according to usual method and then selection of the transformants was performed on the LB agar medium containing 50 μg/mL of kanamycin. After the plasmid DNA was extracted and purified from the one of the transformants, amplifying of the DNA fragment coding for human SGLT2 was performed by the Pfu DNA Polymerase (Stratagene)-used PCR reaction, in which the following oligo nucleotides 0714F and 0715R, presented as Sequence Numbers 3 and 4 respectively, were used as the primers. The amplified DNA fragment was digested with restriction enzymes, Xho I and Hind III, and then purified with Wizard Purification System (Promega). This purified DNA fragment was inserted at the corresponding multi-cloning sites of pcDNA3.1 (−) Myc/His-B (Invitrogen), a vector for expressing of fusion protein. The competent cell, Escherichia coli HB101 (Toyobo), was transformed according to usual method and then selection of the transformant was performed on the LB agar medium containing 100 μg/mL of ampicillin. After the plasmid DNA was extracted and purified from this transformant, the base sequence of the DNA fragment inserted at the multi-cloning sites of pcDNA3.1 (−) Myc/His-B was analyzed. […] This plasmid vector expressing human SGLT2 in which the peptide presented as Sequence Number 5 is fused to the carboxyl terminal alanine residue was designated KL29.
2) Preparation of the Cells Expressing Transiently Human SGLT2
KL29, the plasmid coding human SGLT2, was transfected into COS-7 cells (RIKEN CELL BANK RCB0539) by electroporation. Electroporation was performed with GENE PULSER II (Bio-Rad Laboratories) under the condition: 0.290 kV, 975 μF, 2×10^6 cells of COS-7 cell and 20 μg of KL29 in 500 μL of OPTI-MEM I medium (Gibco-BRL: LIFE TECHNOLOGIES) in the 0.4 cm type cuvette. After the gene transfer, the cells were harvested by centrifugation and resuspended with OPTI-MEM I medium (1 mL/cuvette). To each well in 96-wells plate, 125 μL of this cell suspension was added. After overnight culture at 37° C. under 5% CO2, 125 μL of DMEM medium which is containing 10% of fetal bovine serum (Sanko Jyunyaku), 100 units/mL sodium penicillin G (Gibco-BRL: LIFE TECHNOLOGIES) and 100 μg/mL streptomycin sulfate (Gibco-BRL: LIFE TECHNOLOGIES) was added to each well. After a culture until the following day, these cells were used for the measurement of the inhibitory activity against the uptake of methyl-α-D-glucopyranoside.
3) Measurement of the Inhibitory Activity Against the Uptake of Methyl-α-D-Glucopyranoside
After a test compound was dissolved in dimethyl sulfoxide and diluted with the uptake buffer (a pH 7.4 buffer containing 140 mM sodium chloride, 2 mM potassium chloride, 1 mM calcium chloride, 1 mM magnesium chloride, 5 mM methyl-α-D-glucopyranoside, 10 mM 2-[4-(2-hydroxyethyl)-1-piperazinyl]ethane sulfonic acid and 5 mM tris (hydroxymethyl) aminomethane), each diluent was used as test sample for measurement of the inhibitory activity.

Compound | pIC50 [3] | also measured
CCOC(=O)OC[C@H]1O[C@@H](Oc2ccccc2Cc2ccc(OC)cc2)[C@H](O)[C@@H](O)[C@@H]1O [Example 1, 2-(4-Methoxybenzyl)phenyl 6-O-ethoxycarbonyl-β-D-glucopyranoside] | – | Amount of Urinary Glucose Excretion ([1]; dose 3 mg/kg): 52 mg/24 hours · 200 g body weight; Amount of Urinary Glucose Excretion ([1]; dose 10 mg/kg): 239 mg/24 hours · 200 g body weight; Amount of Urinary Glucose Excretion ([1]; dose 30 mg/kg): 513 mg/24 hours · 200 g body weight; Death number [2]: 0/5
COc1ccc(Cc2ccccc2O[C@@H]2O[C@H](CO)[C@@H](O)[C@H](O)[C@H]2O)cc1 [Reference Example 11, 2-(4-Methoxybenzyl)phenyl β-D-glucopyranoside] | 6.46 | –
CC(C)Cc1ccc(Cc2ccccc2O[C@@H]2O[C@H](CO)[C@@H](O)[C@H](O)[C@H]2O)cc1 [Reference Example 14, 2-(4-Isobutylbenzyl)phenyl β-D-glucopyranoside] | 6.30 | –
CC(C)Oc1ccc(Cc2ccccc2O[C@@H]2O[C@H](CO)[C@@H](O)[C@H](O)[C@H]2O)cc1 [Reference Example 16, 2-(4-Isopropoxybenzy)phenyl β-D-Glucopyranoside] | 6.43 | –

Now from value to compound, other results behind:

pIC50 [3] | Compound | also measured
6.85 | CCc1ccc(Cc2ccccc2O[C@@H]2O[C@H](CO)[C@@H](O)[C@H](O)[C@H]2O)cc1 [Reference Example 13, 2-(4-Ethylbenzyl)phenyl β-D-glucopyranoside] | –
6.48 | CCOc1ccc(Cc2ccccc2O[C@@H]2O[C@H](CO)[C@@H](O)[C@H](O)[C@H]2O)cc1 [Reference Example 15, 2-(4-Ethoxybenzyl)phenyl β-D-glucopyranoside] | –
6.96 | CCSc1ccc(Cc2ccccc2O[C@@H]2O[C@H](CO)[C@@H](O)[C@H](O)[C@H]2O)cc1 [Reference Example 17, 2-(4-Ethylthiobenzyl)phenyl β-D-glucopyranoside] | –
